Tests used:
Chlorella sp. ATCC 7516 = assay: Algal efficacy testing of dry paint films (modified ASTM D5589-09), Chlorella; assay type: cell-based; conditions: 672 h
Method: (§1) Slurries containing 33% flurochloridone were post added to a white, acrylic/silicone based outdoor paint free of biocides to give a total active ingredient concentration of 10000 and 1000 ppm respectively. These paints were then diluted with an antimicrobial free acrylic/silicone based paint and mixed to prepare targeted concentrations of antimicrobial compounds for the testing. The total biocides concentrations tested were 125, 250, 500, 1000, 2000 and 5000 ppm. After biocides addition or dilution, the paints were mixed 90 seconds with the horse power shaker (AXEL 75M3372/Agitateur SO-10MI) until uniformity was achieved. Paints containing different antimicrobial compounds at the same levels were mixed together in order to obtain the desired ratio of antimicrobial compounds. After one day, the paints were applied to Schleicher & Schuell filter paper at 280 μm wet film thickness and dried for 3 days at room temperature avoiding direct exposure to sunlight. Square discs (1.6 cm×1.6 cm) were cut out from each panel and were used as the substrate for algal efficacy tests. This sample size allowed for an agar border when the sample disc was placed into the well of the test plate. […]
(§2) At the end of the four week incubation period, the samples were scored for percent inhibition regarding visible algal growth compared to the blank sample (0% inhibition).
(§3) The SI is calculated based on F. C. […]

[1] = system: Stichococcus bacillaris SAG 379-1a / CCAP 379/1a; assay: Algal efficacy testing of dry paint films (modified ASTM D5589-09), Stichococcus; assay type: cell-based; conditions: 672 h
Method: as §1, §2, §3

O=C1C(Cl)C(CCl)CN1c1cccc(C(F)(F)F)c1 (stereo not shown) [Flurochloridone, 3-chloro-4-(chloromethyl)-1-[3-(trifluoromethyl)phenyl]-2-pyrrolidinone]
inhibition at 2000 ppm (Chlorella sp. ATCC 7516; total conc 2000 ppm in paint, 4 weeks, visible algal growth vs blank): 60%
inhibition at 2000 ppm ([1]; Stichococcus, total conc 2000 ppm in paint, 4 weeks, visible algal growth vs blank): 50%

O=c1[nH]c2c(c(=O)n1C1CCCCC1)CCC2 [Lenacil, 3-cyclohexyl-1,5,6,7-tetrahydrocyclopentapyrimidine-2,4(3H)-dione]
inhibition at 5000 ppm (Chlorella sp. ATCC 7516): 45%
inhibition at 5000 ppm [1]: 65%

From US9408389B2 (Rohm and Haas Company, priority 2013, dated 2016)
